Test results from patent publication US20140228407A1, “TETRA-PYRIDINE COMPOUNDS AND COMPOSITION FOR PROTECTING CELLS, TISSUES AND ORGANS AGAINST ISCHEMIA-REPERFUSION INJURY” (YISSUM RESEARCH DEVELOPMENT COMPANY OF THE HEBREW …, priority 2011, published 2014).
Entries after “also recorded” stand apart in the source; their conditions may differ. Marks after values point to notes of the source that are not given here.

Experiments:
Type in all cases: in vivo
[1] = system: model of ischemia/reperfusion in the CD rat; experiment: Rat model of ischemia/reperfusion, infarct analysis (Phase B); conditions: for Infarct/AAR (%) Mean: 4 hour reperfusion; for Infarct/AAR (%) Mean / Infarct/LV (%) Mean: rat
Method: (§1) This study was conducted to evaluate the effects of the Compound #6 on cardiac function, infarct size, and Troponin I levels in a model of ischemia/reperfusion in the CD® (CR1CD® (SD)) rat. Phase A was conducted for toxicity evaluation purposes. In Phase B (the efficacy phase), two treatment groups of eight male rats were administered Compound #6 at dose levels of 0.2 and 2 mg/kg via intravenous infusion following myocardial infarction. The 2 mg/kg dose of Compound #6 was administered intravenously via a slow infusion starting 3 to 14 minutes prior to reperfusion and continuing for 20 minutes to 20 minutes and 32 seconds, which was approximately 6 to 17 minutes after reperfusion (depending on the infusion start time). The 0.2 mg/kg dose of Compound #6 was administered intravenously via a slow infusion starting 10 minutes prior to reperfusion and continuing for 30 minutes to 30 minutes and 30 seconds, which was approximately 20 minutes after reperfusion.
The animals were placed on mechanical ventilation and […]. Once anesthetized, the animal was placed in a right lateral recumbency, an arterial catheter or polyethylene tube was placed in the carotid artery for monitoring blood pressure and a thoracotomy was performed. The left coronary artery (LCA) was identified. A ligature was placed around the LCA and the vessel was ligated. The LCA was maintained occluded for 29 to 43 minutes. Occlusion of the vessel was verified via blanching of the heart and via ST interval changes. At the end of the occlusion period, the knot was loosened leaving the ligature in place, and the vessel was allowed to reperfuse for 3 hours 27 minutes to 4 hours 51 minutes. Following infarct, a chest tube was placed, the deep and superficial muscle layers were sutured at the surgical incision, and the skin was closed with staples. The chest tube was removed after spontaneous respiration was established. In Phase A, the animals were recovered from anesthesia and evaluated for 4 days. In Phase B, animals were maintained under anesthesia for 3 hours 27 minutes to 4 hours 51 minutes prior to being submitted to necropsy.
(§2) In Phase B, Compound #6 was administered once on Day 0 via intravenous infusion at dose levels of 0.2 and 2 mg/kg. The doses were administered at a dose volume of 1 mL/kg (0.05 [2 mg/kg] or 0.033 [0.2 mg/kg] mL/kg/minute). Two control groups received the vehicle (saline) or the vehicle for Compound #6 (10% (w/v) 2-hydroxypropyl-beta-cyclodextrin and 100 mM sodium chloride in deionized water) in the same manner as the 2 mg/kg treated group. The vehicles and 2 mg/kg Compound #6 were administered intravenously via a slow infusion starting 3 to 14 minutes prior to reperfusion and continuing for 20 minutes to 20 minutes and 32 seconds, which was approximately 6 to 17 minutes after reperfusion (depending on the infusion start time). The 0.2 mg/kg Compound #6 was administered intravenously via a slow infusion starting 10 minutes prior to reperfusion and continuing for 30 minutes to 30 minutes and 30 seconds, which was approximately 20 minutes after reperfusion. The positive control article, Erythropoietin, was administered at 5000 IU/kg via a bolus intravenous injection. The positive control article dose was administered at a dose volume of 2.5 mL/kg. The positive control was administered via a 3 to 60 second injection at 5 minutes prior to reperfusion.
After LAD reperfusion (4 hours), the animals were euthanized by an intraperitoneal injection of sodium pentobarbital followed by exsanguination via severing the abdominal vena cava. The heart was flushed with heparinized Lactated Ringers Solution (LRS) until clear of blood and the LAD was tied off using the same ligature used to occlude the vessel and Evan Blue dye was injected. The heart was weighed and breadloafed (4-5 sections per animal). […]

CD rat = experiment: Toxicity evaluation in rat after myocardial ischemia (Phase A: mortality, clinical observations, body weights); conditions: dose levels up to 2 mg/kg following myocardial ischemia
Method: This study was conducted to evaluate the effects of the Compound #6 on cardiac function, infarct size, and Troponin I levels in a model of ischemia/reperfusion in the CD® (CR1CD® (SD)) rat. Phase A was conducted for toxicity evaluation purposes. In Phase B (the efficacy phase), two treatment groups of eight male rats were administered Compound #6 at dose levels of 0.2 and 2 mg/kg via intravenous infusion following myocardial infarction. […]
The animals were placed on mechanical ventilation and not intubated. […] In Phase A, the animals were recovered from anesthesia and evaluated for 4 days. […]
In Phase A, body weights for all animals were measured and recorded at receipt, prior to randomization, just prior to surgery, and daily for 3 days during the study. In Phase B, body weights for all animals were measured and recorded at receipt, prior to each randomization as applicable, and just prior to surgery, except that a body weight was not recorded prior to randomization for the animals received in the second shipment. In both phases, the body weights recorded at receipt and prior to randomization are not reported but are maintained in the study file.

[2] = system: model of ischemia/reperfusion in the CD rat; experiment: Mortality and adverse changes in Phase B of rat ischemia/reperfusion study
Method: as §1
The animals were placed on mechanical ventilation and not intubated. Once anesthetized, the animal was placed in a right lateral recumbency, an arterial catheter or polyethylene tube was placed in the carotid artery for monitoring blood pressure and a thoracotomy was performed. The left coronary artery (LCA) was identified. […] In Phase A, the animals were recovered from anesthesia and evaluated for 4 days. […]

[3] = system: model of ischemia/reperfusion in the CD rat; experiment: Rat model of ischemia/reperfusion, cardiovascular monitoring (blood pressure, heart rate; Phase B)
Method: The animals in Phase B were monitored for selected cardiovascular endpoints from at least 15 minutes prior to acute myocardial infarction until at approximately 1 hour post reperfusion. Blood samples for the evaluation of Troponin I were collected from all surviving Phase B animals prior to coronary artery occlusion and at termination. At study termination, the Phase B animals were submitted to necropsy for limited necropsy examinations and infarct analysis.
as §2
In Phase B, animals were anesthetized for monitoring of selected cardiovascular parameters. For experimentation, the blood pressure catheter implanted in the carotid artery was attached to an external transducer and data acquisition was started. Blood pressure (systolic, diastolic, and mean arterial) and heart rate (derived from blood pressure) were monitored from at least 15 minutes prior to acute myocardial infarction (AMI) until at least 1 hour after reperfusion. Individual animal cardiovascular data tables are not reported but are maintained in the study file.

[4] = system: model of ischemia/reperfusion in the CD rat; experiment: Rat model of ischemia/reperfusion, cardiac Troponin I concentration (Phase B); conditions: 0.2 and 2.0 mg/kg; prior to termination; not statistically different
Method: as §1
The animals in Phase B were monitored for selected cardiovascular endpoints from at least 15 minutes prior to acute myocardial infarction until at approximately 1 hour post reperfusion. […]
In Phase B, cardiac troponin I evaluations were conducted at 3 to 54 minutes prior to coronary artery occlusion and prior to termination on all animals. […] The samples were stored frozen at −50 to −90° C. until analyzed.

Compound: Cc1ccc(CN(CCN(Cc2ccc(C)cn2)Cc2ccc(C)cn2)Cc2ccc(C)cn2)nc1 [Compound #6]
- Infarct/AAR (%) Mean ([1]; 0.2 mg/kg intravenous infusion): 22.2±5.24%
- Infarct/AAR (%) Mean ([1]; 0.2 mg/kg intravenous infusion, listed as Comp #6): 22^b %
- Infarct/LV (%) Mean ([1]; 0.2 mg/kg intravenous infusion): 7%
- Infarct/AAR (%) Mean ([1]; 2 mg/kg intravenous infusion): 19.1±7.38%
- Infarct/AAR (%) Mean ([1]; 2 mg/kg intravenous infusion, listed as Comp #6): 19^b %
- Infarct/LV (%) Mean ([1]; 2 mg/kg intravenous infusion): 7%
- infarct size following ischemia-reperfusion injury, in words ([1]; either 0.2 or 2.0 mg/kg IV as an infusion, 30 minute ischemia, vs saline and vehicle controls): significant decrease in infarct size
- toxicity in the rat (overall conclusion) (CD rat): not associated with any toxicity
- differences in mortality rates between saline animals and treated animals (Phase B) ([2]; 0.2 and 2 mg/kg vs saline): suggest a cardioprotective effect
- animals that died between 3 and 4 hours post reperfusion (Phase B) ([2]; Group 5, 0.2 mg/kg): two
- mean arterial pressures after reperfusion ([3]; 0.2 mg/kg, within 5-10 minutes of reperfusion): increased
- time at which blood pressure reached peak levels post reperfusion ([3]; 2 mg/kg, approximately 5 minutes following completion of the infusion): approximately 20 minutes
- heart rate ([3]; 0.2 and 2.0 mg/kg): unaffected
- blood pressures during infusion ([3]; both dose levels (0.2 and 2.0 mg/kg), returned to levels comparable to vehicle animals after infusion): slightly elevated
- Troponin I (TnI) levels versus saline and vehicle control animals [4]: substantially lower TnI levels than both saline and vehicle control animals; also recorded: substantially lower, but not significantly lower
